In the NIST ThermoML archive (doi:10.1016/j.fluid.2018.09.024):
± gives the expanded uncertainty stated by the source.

assay: activity coefficient (dimensionless); of the first substance listed, at infinite dilution; xn = mol fraction of the nth substance listed; conditions: 348.15 K; 101.33 kPa; Liquid; Chromatography; x1 = 0

First: C#CCCCC [1-hexyne] + CCCCCCCCCCCC[N+](C)(C)CCOc1ccccc1.O=S(=O)([N-]S(=O)(=O)C(F)(F)F)C(F)(F)F
Second: C#CCCCCCC [1-octyne] + CCCCCCCCCCCC[N+](C)(C)CCOc1ccccc1.N#C[N-]C#N
The activity coefficient of the first is lower: 1.45 ± 0.1 for the first, 2.46 ± 0.17 for the second.

First: CCC[N+](=O)[O-] [1-nitropropane] + CCCCCCCCCCCC[N+](C)(C)CCOc1ccccc1.N#C[N-]C#N
Second: C#CCCC [1-pentyne] + CCCCCCCCCCCC[N+](C)(C)CCOc1ccccc1.N#C[N-]C#N
The activity coefficient of the first is lower: 0.868 ± 0.055 for the first, 1.6 ± 0.11 for the second.

First: CCC[N+](=O)[O-] [1-nitropropane] + CCCCCCCCCCCC[N+](C)(C)CCOc1ccccc1.O=S(=O)([N-]S(=O)(=O)C(F)(F)F)C(F)(F)F
Second: C#CCCC [1-pentyne] + CCCCCCCCCCCC[N+](C)(C)CCOc1ccccc1.O=S(=O)([N-]S(=O)(=O)C(F)(F)F)C(F)(F)F
The activity coefficient of the first is lower: 0.793 ± 0.052 for the first, 1.25 ± 0.08 for the second.

First: C#CCCCCCC [1-octyne] + CCCCCCCCCCCC[N+](C)(C)CCOc1ccccc1.O=S(=O)([N-]S(=O)(=O)C(F)(F)F)C(F)(F)F
Second: C=CCCC [1-pentene] + CCCCCCCCCCCC[N+](C)(C)CCOc1ccccc1.N#C[N-]C#N
The activity coefficient of the first is lower: 1.95 ± 0.13 for the first, 3.42 ± 0.23 for the second.

First: C=CCCC [1-pentene] + CCCCCCCCCCCC[N+](C)(C)CCOc1ccccc1.O=S(=O)([N-]S(=O)(=O)C(F)(F)F)C(F)(F)F
Second: CCC(C)(C)C [2,2-dimethylbutane] + CCCCCCCCCCCC[N+](C)(C)CCOc1ccccc1.N#C[N-]C#N
The activity coefficient of the first is lower: 1.98 ± 0.13 for the first, 6.05 ± 0.41 for the second.

Going from CC(C)CC(C)(C)C [2,2,4-trimethylpentane] + CCCCCCCCCCCC[N+](C)(C)CCOc1ccccc1.N#C[N-]C#N to CCC(C)(C)C [2,2-dimethylbutane] + CCCCCCCCCCCC[N+](C)(C)CCOc1ccccc1.O=S(=O)([N-]S(=O)(=O)C(F)(F)F)C(F)(F)F, the activity coefficient falls from 7.23 ± 0.49 to 3.07 ± 0.21.

CC(C)CC(C)(C)C [2,2,4-trimethylpentane] + CCCCCCCCCCCC[N+](C)(C)CCOc1ccccc1.O=S(=O)([N-]S(=O)(=O)C(F)(F)F)C(F)(F)F and CCOC(C)(C)C [2-ethoxy-2-methylpropane] + CCCCCCCCCCCC[N+](C)(C)CCOc1ccccc1.N#C[N-]C#N are the same in activity coefficient: 3.82 ± 0.26 for the first, 3.82 ± 0.26 for the second.

For CCOC(C)(C)C [2-ethoxy-2-methylpropane] + CCCCCCCCCCCC[N+](C)(C)CCOc1ccccc1.O=S(=O)([N-]S(=O)(=O)C(F)(F)F)C(F)(F)F, the activity coefficient was 2.01 ± 0.14.

same assay, conditions: 358.15 K; 101.33 kPa; Liquid; Chromatography; x1 = 0

Compared with Cc1ccccc1C [1,2-dimethylbenzene] + CCCCCCCCCCCC[N+](C)(C)CCOc1ccccc1.N#C[N-]C#N, Cc1cccc(C)c1 [1,3-dimethylbenzene] + CCCCCCCCCCCC[N+](C)(C)CCOc1ccccc1.N#C[N-]C#N is higher in activity coefficient: 1.36 ± 0.09 for the first, 1.56 ± 0.1 for the second.

Cc1ccccc1C [1,2-dimethylbenzene] + CCCCCCCCCCCC[N+](C)(C)CCOc1ccccc1.O=S(=O)([N-]S(=O)(=O)C(F)(F)F)C(F)(F)F and Cc1cccc(C)c1 [1,3-dimethylbenzene] + CCCCCCCCCCCC[N+](C)(C)CCOc1ccccc1.O=S(=O)([N-]S(=O)(=O)C(F)(F)F)C(F)(F)F are within error of each other in activity coefficient: 0.968 ± 0.061 for the first, 1.07 ± 0.07 for the second.

Going from Cc1ccc(C)cc1 [1,4-dimethylbenzene] + CCCCCCCCCCCC[N+](C)(C)CCOc1ccccc1.N#C[N-]C#N to CCC(C)(C)C [2,2-dimethylbutane] + CCCCCCCCCCCC[N+](C)(C)CCOc1ccccc1.N#C[N-]C#N, the activity coefficient rises from 1.57 ± 0.1 to 6.14 ± 0.42.

Going from Cc1ccc(C)cc1 [1,4-dimethylbenzene] + CCCCCCCCCCCC[N+](C)(C)CCOc1ccccc1.O=S(=O)([N-]S(=O)(=O)C(F)(F)F)C(F)(F)F to CCC(C)(C)C [2,2-dimethylbutane] + CCCCCCCCCCCC[N+](C)(C)CCOc1ccccc1.O=S(=O)([N-]S(=O)(=O)C(F)(F)F)C(F)(F)F, the activity coefficient rises from 1.08 ± 0.07 to 3.15 ± 0.21.

First: C1COCCO1 [1,4-dioxane] + CCCCCCCCCCCC[N+](C)(C)CCOc1ccccc1.N#C[N-]C#N
Second: C=CCCCCCCCC [1-decene] + CCCCCCCCCCCC[N+](C)(C)CCOc1ccccc1.N#C[N-]C#N
The activity coefficient of the first is lower: 0.846 ± 0.054 for the first, 6.99 ± 0.48 for the second.

Compared with C1COCCO1 [1,4-dioxane] + CCCCCCCCCCCC[N+](C)(C)CCOc1ccccc1.O=S(=O)([N-]S(=O)(=O)C(F)(F)F)C(F)(F)F, C=CCCCCCCCC [1-decene] + CCCCCCCCCCCC[N+](C)(C)CCOc1ccccc1.O=S(=O)([N-]S(=O)(=O)C(F)(F)F)C(F)(F)F is higher in activity coefficient: 0.584 ± 0.041 for the first, 4.52 ± 0.31 for the second.

Compared with C=CCCCCC [1-heptene] + CCCCCCCCCCCC[N+](C)(C)CCOc1ccccc1.N#C[N-]C#N, C=CCCC [1-pentene] + CCCCCCCCCCCC[N+](C)(C)CCOc1ccccc1.N#C[N-]C#N is lower in activity coefficient: 4.43 ± 0.3 for the first, 3.48 ± 0.24 for the second.

First: C=CCCCCC [1-heptene] + CCCCCCCCCCCC[N+](C)(C)CCOc1ccccc1.O=S(=O)([N-]S(=O)(=O)C(F)(F)F)C(F)(F)F
Second: C=CCCC [1-pentene] + CCCCCCCCCCCC[N+](C)(C)CCOc1ccccc1.O=S(=O)([N-]S(=O)(=O)C(F)(F)F)C(F)(F)F
The activity coefficient of the first is higher: 2.84 ± 0.19 for the first, 2.03 ± 0.14 for the second.

Compared with C#CCCCCC [1-heptyne] + CCCCCCCCCCCC[N+](C)(C)CCOc1ccccc1.N#C[N-]C#N, C#CCCCCCC [1-octyne] + CCCCCCCCCCCC[N+](C)(C)CCOc1ccccc1.N#C[N-]C#N is higher in activity coefficient: 2.21 ± 0.15 for the first, 2.57 ± 0.17 for the second.

Compared with C#CCCCCC [1-heptyne] + CCCCCCCCCCCC[N+](C)(C)CCOc1ccccc1.O=S(=O)([N-]S(=O)(=O)C(F)(F)F)C(F)(F)F, C#CCCCCCC [1-octyne] + CCCCCCCCCCCC[N+](C)(C)CCOc1ccccc1.O=S(=O)([N-]S(=O)(=O)C(F)(F)F)C(F)(F)F is higher in activity coefficient: 1.75 ± 0.12 for the first, 2.03 ± 0.14 for the second.

C#CCCCC [1-hexyne] + CCCCCCCCCCCC[N+](C)(C)CCOc1ccccc1.N#C[N-]C#N and C#CCCC [1-pentyne] + CCCCCCCCCCCC[N+](C)(C)CCOc1ccccc1.N#C[N-]C#N are within error of each other in activity coefficient: 1.88 ± 0.13 for the first, 1.66 ± 0.11 for the second.

C#CCCCC [1-hexyne] + CCCCCCCCCCCC[N+](C)(C)CCOc1ccccc1.O=S(=O)([N-]S(=O)(=O)C(F)(F)F)C(F)(F)F and C#CCCC [1-pentyne] + CCCCCCCCCCCC[N+](C)(C)CCOc1ccccc1.O=S(=O)([N-]S(=O)(=O)C(F)(F)F)C(F)(F)F are within error of each other in activity coefficient: 1.51 ± 0.1 for the first, 1.32 ± 0.09 for the second.

Compared with CCC[N+](=O)[O-] [1-nitropropane] + CCCCCCCCCCCC[N+](C)(C)CCOc1ccccc1.N#C[N-]C#N, CCOC(C)(C)C [2-ethoxy-2-methylpropane] + CCCCCCCCCCCC[N+](C)(C)CCOc1ccccc1.N#C[N-]C#N is higher in activity coefficient: 0.886 ± 0.056 for the first, 3.9 ± 0.27 for the second.

Compared with CCC[N+](=O)[O-] [1-nitropropane] + CCCCCCCCCCCC[N+](C)(C)CCOc1ccccc1.O=S(=O)([N-]S(=O)(=O)C(F)(F)F)C(F)(F)F, CCOC(C)(C)C [2-ethoxy-2-methylpropane] + CCCCCCCCCCCC[N+](C)(C)CCOc1ccccc1.O=S(=O)([N-]S(=O)(=O)C(F)(F)F)C(F)(F)F is higher in activity coefficient: 0.815 ± 0.053 for the first, 2.09 ± 0.14 for the second.

Molecule CC(C)CC(C)(C)C [2,2,4-trimethylpentane] + CCCCCCCCCCCC[N+](C)(C)CCOc1ccccc1.N#C[N-]C#N has an activity coefficient of 7.32 ± 0.5.
CC(C)CC(C)(C)C [2,2,4-trimethylpentane] + CCCCCCCCCCCC[N+](C)(C)CCOc1ccccc1.O=S(=O)([N-]S(=O)(=O)C(F)(F)F)C(F)(F)F showed an activity coefficient of 3.86 ± 0.26.
